Experimental data as given in ChEMBL document CHEMBL1158721, “Brasilibactin A, a cytotoxic compound from actinomycete Nocardia brasiliensis” (J Nat Prod, 2005).
In brackets after ≈: the same amount, converted by molar mass.

How the values were obtained:
Type in all cases: functional, cell-based
L1210 = test: Cytotoxicity against mouse L1210 cells
KB = test: Cytotoxicity against human KB cells
HL-60 = test: Induction of apoptosis in human HL60 cells assessed as increase in caspase3 activity

## CCCCCCCCCCCCCCC[C@H](OC(=O)[C@@H](CCCCN(O)C=O)NC(=O)[C@H]1COC(c2ccccc2O)=N1)[C@@H](C)C(=O)N[C@@H]1CCCCN(O)C1=O [BRASILIBACTIN A]
L1210
  IC50: 0.02 µg/mL (≈ 0.0249 µM)
KB
  IC50: 0.04 µg/mL (≈ 0.0499 µM)
HL-60
  Activity: Dose-dependent effect
